In EP0821955B1 (priority 1996, dated 1998):

Key:
[1] = biological target: m4 receptors (Homo sapiens, UniProt P08173); type: cell-based; settings: Chinese Hamster Ovary (CHO) m4 cells treated with pertussis toxin
[2] = biological target: muscarinic cholinergic receptors; assay: ^3H-oxotremorine-M binding study; settings: inhibition of the binding of ^3H-oxotremorine-M; read-out: inhibition constant (Ki)

m4 receptors, sequence (P08173 whole entry): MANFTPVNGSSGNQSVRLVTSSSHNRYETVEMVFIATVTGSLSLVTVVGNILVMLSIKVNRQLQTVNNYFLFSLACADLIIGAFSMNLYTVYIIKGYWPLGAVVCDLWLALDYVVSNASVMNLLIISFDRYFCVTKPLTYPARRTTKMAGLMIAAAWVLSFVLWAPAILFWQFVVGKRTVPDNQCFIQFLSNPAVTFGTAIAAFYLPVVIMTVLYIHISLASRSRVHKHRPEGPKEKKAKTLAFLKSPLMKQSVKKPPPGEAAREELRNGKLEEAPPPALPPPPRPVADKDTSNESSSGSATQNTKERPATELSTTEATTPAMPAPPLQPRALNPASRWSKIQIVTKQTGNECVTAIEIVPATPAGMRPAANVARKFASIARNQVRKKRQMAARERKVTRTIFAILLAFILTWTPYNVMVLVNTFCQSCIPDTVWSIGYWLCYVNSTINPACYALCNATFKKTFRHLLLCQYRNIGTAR

Question: What does the source list for CCCCCCOc1nsnc1C1=CCCN(C)C1 [xanomeline, 3-(4-hexyloxy-1,2,5-thiadiazol-3-yl)-1,2,5,6-tetrahydro-1-methylpyridine]?
Answer: formation of cAMP [1]: efficaciously and potently stimulated the formation of cAMP; Ki [2]: 2 nM
